Series [1] in a line: Cytotoxicity against human KB/VCR cells after 72 hrs by MTT assay. Type of series: functional, cell-based. For orientation: Tetrazolium dyes change colour on reduction, which living cells bring about.
Another series relates to KB. Put plainly: Cytotoxicity against human KB cells after 72 hrs by MTT assay. Type of series: functional, cell-based.
In a further series the test system is A549. Nature of the series: Cytotoxicity against human A549 cells after 72 hrs by MTT assay. Type of series: functional, cell-based. As to conditions: A549, 72 h.
The nature of series [2]: Cytotoxicity against human 95-D cells after 72 hrs by MTT assay. Type of series: functional, cell-based.
A short description of series [3]: Anticancer activity against human 95-D cells xenografted in BALB/c mouse at 10 mg/kg administered intramuscularly every other day for 20 days measured post last dose relative to control. As to conditions: route intramuscular. Type of series: functional. (In xenograft studies the graft and the host belong to different species.)
The nature of series [4]: Anticancer activity against human 95-D cells xenografted in BALB/c mouse assessed as inhibition of tumor growth at 10 mg/kg administered intramuscularly every other day for 20 days measured post last dose. The series is classed as functional. As to conditions: im, 480 h, route intramuscular.
For the next series, the system named is Mus musculus. Put plainly: Toxicity in BALB/c mouse xenografted with human 95-D cells assessed as body weight at 10 mg/kg administered intramuscularly every other day for 20 days measured post last dose (reference value: 21.6 +/- 0.6 gm). As to conditions: in vivo, im, 480 h. Also on record: dose 10 mg/kg, route intramuscular. Type of series: organism-based.

Structures are written as SMILES.

Consider `COc1cc([C@@H]2c3cc4c(cc3[C@@H](Nc3cccc(CN5CCCCC5)c3)[C@H]3COC(=O)[C@H]23)OCO4)cc(OC)c1O`, for which the IC50 in series [1] was 3.44 µM; in the series on KB it was 0.97 µM; with A549, 0.5 µM; in series [2], 0.2 µM.
The matching figures for `COc1cc([C@@H]2c3cc4c(cc3[C@@H](Nc3ccc(CCN5CCCC5)cc3)[C@H]3COC(=O)[C@H]23)OCO4)cc(OC)c1O`: 1.57 µM, 0.21 µM, 0.24 µM and 0.036 µM.
The matching figures for `COc1cc([C@@H]2c3cc4c(cc3[C@@H](Nc3ccc(CCN5CCOCC5)cc3)[C@H]3COC(=O)[C@H]23)OCO4)cc(OC)c1O`: 1.27 µM, 0.78 µM, 1.94 µM and 11.5 µM.
Regarding `CCN(CC)CCc1ccc(N[C@@H]2c3cc4c(cc3[C@@H](c3cc(OC)c(O)c(OC)c3)[C@H]3C(=O)OC[C@@H]32)OCO4)cc1`, the IC50 in series [1] was determined as 1.53 µM; in the series with KB, 0.45 µM; in the series on A549, 0.4 µM; in series [2], 9.84 µM.
As for `COc1cc([C@@H]2c3cc4c(cc3[C@@H](Nc3ccc(CCN5CCCCC5)cc3)[C@H]3COC(=O)[C@H]23)OCO4)cc(OC)c1O`, the concentration for half-maximal inhibition (IC50) in series [1] was 19.1 µM; in the series on KB, 4.21 µM; with A549, 13.4 µM; in series [2], 17.2 µM.
In the case of `COc1cc([C@@H]2c3cc4c(cc3[C@@H](Nc3ccc(CCN(C)C)cc3)[C@H]3COC(=O)[C@H]23)OCO4)cc(OC)c1O`, the IC50 came to 3.95 µM in series [1], 2.42 µM in the series on KB, 19 µM in the series on A549 and 17.1 µM in series [2].
As for `COc1cc([C@@H]2c3cc4c(cc3[C@@H](Nc3ccc(CCN(C(C)C)C(C)C)cc3)[C@H]3COC(=O)[C@H]23)OCO4)cc(OC)c1O`, the IC50 in series [1] was found to be 2.2 µM; in the series on KB it was 0.44 µM; in the series on A549, 0.49 µM; in series [2], 10 µM.
On the same counts, the results for `COc1cc([C@@H]2c3cc4c(cc3[C@@H](Nc3cccc(CCN5CCCC5)c3)[C@H]3COC(=O)[C@H]23)OCO4)cc(OC)c1O` are 1.85 µM, 0.39 µM, 3.91 µM and 1.17 µM.
In the case of `COc1cc([C@@H]2c3cc4c(cc3[C@@H](Nc3cccc(CCN5CCOCC5)c3)[C@H]3COC(=O)[C@H]23)OCO4)cc(OC)c1O`, the half-inhibitory concentration (IC50) in series [1] was determined as 2.09 µM; in the series on KB it was 0.48 µM; in the series with A549 it was 5.1 µM; in series [2] it was 14.8 µM.
On to `CCN(CC)CCc1cccc(N[C@@H]2c3cc4c(cc3[C@@H](c3cc(OC)c(O)c(OC)c3)[C@H]3C(=O)OC[C@@H]32)OCO4)c1`, for which the IC50 came to 3.87 µM in series [1], 0.77 µM with KB, 7.49 µM with A549 and 14.6 µM in series [2].
The matching figures for `COc1cc([C@@H]2c3cc4c(cc3[C@@H](Nc3cccc(CCN5CCCCC5)c3)[C@H]3COC(=O)[C@H]23)OCO4)cc(OC)c1O`: 1.78 µM, 0.43 µM, 2.75 µM and 7.4 µM.
The matching figures for `COc1cc([C@@H]2c3cc4c(cc3[C@@H](Nc3ccc(CC(=O)N5CCCC5)cc3)[C@H]3COC(=O)[C@H]23)OCO4)cc(OC)c1O`: 2.2 µM, 1.52 µM, 15.9 µM and more than 50 µM.
On the same counts, the results for `COc1cc([C@@H]2c3cc4c(cc3[C@@H](Nc3ccc(CC(=O)N5CCCCC5)cc3)[C@H]3COC(=O)[C@H]23)OCO4)cc(OC)c1O` are 2.33 µM, 0.4 µM, 5.2 µM and 25.8 µM.
For `CCN(CC)C(=O)Cc1cccc(N[C@@H]2c3cc4c(cc3[C@@H](c3cc(OC)c(O)c(OC)c3)[C@H]3C(=O)OC[C@@H]32)OCO4)c1`, the IC50 in series [1] was 27.2 µM; in the series with KB, 0.42 µM; with A549, 4.78 µM; in series [2] it was more than 50 µM.
As for `COc1cc([C@@H]2c3cc4c(cc3[C@@H](Nc3ccc(OCCO)cc3)[C@H]3COC(=O)[C@H]23)OCO4)cc(OC)c1O`, the Activity in series [3] was 45.4%; with Mus musculus, 17 g. Also, the IC50 in series [1] was determined as 6.51 µM; in the series on KB, 2.88 µM; in the series on A549 it was 4.54 µM; in series [2] it was 4.13 µM. Moreover, the inhibition in vivo at 10 mg/kg in series [4] is 37.5%.
For the compound `COc1cc([C@@H]2c3cc4c(cc3[C@@H](Nc3ccc(COCCO)cc3)[C@H]3COC(=O)[C@H]23)OCO4)cc(OC)c1O`, the IC50 in series [1] came to 7.39 µM; in the series on KB it was 3.12 µM; with A549, 5.11 µM; in series [2], 0.55 µM.
The matching figures for `COc1cc([C@@H]2c3cc4c(cc3[C@@H](Nc3ccc(COCCCO)cc3)[C@H]3COC(=O)[C@H]23)OCO4)cc(OC)c1O`: 5.08 µM, 6 µM, 7.45 µM and 12 µM.
The matching figures for `COc1cc([C@@H]2c3cc4c(cc3[C@@H](Nc3ccc(COCCCCO)cc3)[C@H]3COC(=O)[C@H]23)OCO4)cc(OC)c1O`: 9.55 µM, 6.6 µM, 8.5 µM and 20.3 µM.
Turning to `COc1ccc(C(=O)Nc2ccc(N[C@@H]3c4cc5c(cc4[C@@H](c4cc(OC)c(O)c(OC)c4)[C@H]4C(=O)OC[C@@H]43)OCO5)cc2)cc1`, the IC50 stood at 9.28 µM in series [1], 6.76 µM in the series with KB, 3.41 µM with A549 and 0.44 µM in series [2].
The matching figures for `COc1cc([C@@H]2c3cc4c(cc3[C@@H](Nc3ccc(NC(=O)c5ccc(F)cc5)cc3)[C@H]3COC(=O)[C@H]23)OCO4)cc(OC)c1O`: 5.31 µM, 2.91 µM, 1.56 µM and 1.08 µM.
As to `COc1cc([C@@H]2c3cc4c(cc3[C@@H](Nc3ccc(NC(=O)c5ccc([N+](=O)[O-])cc5)cc3)[C@H]3COC(=O)[C@H]23)OCO4)cc(OC)c1O`, the IC50 in series [1] was 13.7 µM; in the series with KB, more than 50 µM; in the series on A549, 11 µM; in series [2] it was 3.41 µM.
Regarding `COc1cc([C@@H]2c3cc4c(cc3[C@@H](Nc3ccc(NC(=O)CCc5ccccc5)cc3)[C@H]3COC(=O)[C@H]23)OCO4)cc(OC)c1O`, the Activity in series [3] turned out to be 62.4%; in the series with Mus musculus, 20.2 g. Besides, the IC50 in series [1] worked out at 3.7 µM; with KB it was 6.88 µM; in the series with A549, 3.31 µM; in series [2], 1.15 µM. For the same compound, the inhibition in vivo at 10 mg/kg in series [4] was 9.2%.
Regarding `COc1cc([C@@H]2c3cc4c(cc3[C@@H](Nc3ccc(NC(=O)CCc5ccccc5[N+](=O)[O-])cc3)[C@H]3COC(=O)[C@H]23)OCO4)cc(OC)c1O`, the IC50 in series [1] was 5.3 µM; in the series with KB, 6.69 µM; in the series on A549, 8.43 µM; in series [2], 0.41 µM.
The matching figures for `COc1cc([C@@H]2c3cc4c(cc3[C@@H](Nc3ccc(NC(=O)/C=C/c5ccccc5)cc3)[C@H]3COC(=O)[C@H]23)OCO4)cc(OC)c1O`: 2.8 µM, 6.53 µM, more than 50 µM and 1.25 µM.
Consider `COc1ccc(CCC(=O)Nc2ccc(N[C@@H]3c4cc5c(cc4[C@@H](c4cc(OC)c(O)c(OC)c4)[C@H]4C(=O)OC[C@@H]43)OCO5)cc2)cc1`, for which the IC50 in series [1] is 3.08 µM; in the series with KB, more than 50 µM; in the series on A549, more than 50 µM; in series [2], 1.23 µM.
In the case of `COc1cc([C@@H]2c3cc4c(cc3[C@@H](Nc3ccc(NC(=O)c5ccc(Br)cc5)cc3)[C@H]3COC(=O)[C@H]23)OCO4)cc(OC)c1O`, the IC50 in series [1] turned out to be 5.72 µM; with KB, 8.75 µM; with A549, 18.9 µM; in series [2], 1.66 µM.
On the same counts, the results for `COc1cc([C@@H]2c3cc4c(cc3[C@@H](Nc3ccc(NC(=O)c5ccc(Cl)cc5)cc3)[C@H]3COC(=O)[C@H]23)OCO4)cc(OC)c1O` are 13.1 µM, 22.1 µM, 19.5 µM and 6.56 µM.
On the same counts, the results for `COc1cc([C@@H]2c3cc4c(cc3[C@@H](N(C(=O)c3ccc([N+](=O)[O-])cc3)c3ccc(NC(=O)c5ccc([N+](=O)[O-])cc5)cc3)[C@H]3COC(=O)[C@H]23)OCO4)cc(OC)c1O` are more than 50 µM, more than 50 µM, more than 50 µM and 15.7 µM.
The matching figures for `COc1cc([C@@H]2c3cc4c(cc3[C@@H](N(C(=O)c3ccc(Cl)cc3)c3ccc(NC(=O)c5ccc(Cl)cc5)cc3)[C@H]3COC(=O)[C@H]23)OCO4)cc(OC)c1O`: 14.2 µM, more than 50 µM, more than 50 µM and 19.6 µM.
Turning to `COc1cc([C@@H]2c3cc4c(cc3[C@@H](O[C@@H]3O[C@@H]5CO[C@@H](C)O[C@H]5[C@H](O)[C@H]3O)[C@H]3COC(=O)[C@H]23)OCO4)cc(OC)c1O` [ETOPOSIDE], the IC50 in series [1] is 83.4 µM; in the series with KB, 4.61 µM; in the series with A549, 2.56 µM; in series [2], 20.2 µM.

Broadly, the IC50 is the concentration at which inhibition is half-maximal. Usually inhibition in vivo stands for the share of the control response that was lost under treatment.
